# Values joined by “and” are separate entries in the source; they are usually repeats but may differ in a detail not shown here. Equal values may be shown once. Read-outs that look alike come from different tables or passages of the source.
# How the values were obtained:
# human plasma BChE [1] = molecular target: T1, human plasma BChE (Homo sapiens, UniProt P06276); assay: biochemical; format: biochemical; settings: single concentration 100 μM
# T1 construct: 25 μL/well of a 1:450 diluted solution of pooled human plasma; from tissue; host or cells: pooled human plasma, diluted 1:450, BChE not purified
# Method: (§1) All of the drugs were tested at a final concentration of 100 μM.
# (§2) The screening of the in silico hits toward the BChE and AChE enzymatic activity was done by an adapted high-throughput assay version of Ellman′s colorimetric assay.[59],[60] The reagents, butyrylthiocholine iodide (BTC), acetylthiocholine iodide (ATC), and 5,5′-dithiobis(2-nitrobenzoic acid) (DTNB), were purchased from Sigma-Aldrich (St. Louis, MO). The modified assay details are as previously described.[6],[44] The main modification concerned the high-throughput adaptation of the assay for use in 384-well plates. Briefly, 25 μL/well of a 1:450 diluted solution of pooled human plasma and 1:768 diluted (3.5 ng/mL final concentration) purified recombinant human AChE protein (Sigma, Cat no. C1682) was used for measurement of the BChE and AChE activity, respectively. These enzymes’ concentrations were used since they are representative of the activity of these enzymes in the human cerebrospinal fluid (CSF).
# (§3) To the control wells, the vehicle solution was added to get the reference enzyme activity (100%). (2) Then, 25 μL of a working solution of BChE or AChE was added to all wells. The plate was then incubated for 10–30 min at room temperature. (3) The reaction was then started by adding 25 μL of a cocktail mix prepared in Na/K phosphate buffer to all wells, containing DTNB (final concentration 0.4 mM) and BTC (final concentration 1 mM) or ATC (final concentration 0.5 mM). The changes in the absorbance were monitored at 412 nm wavelength for 15–20 min at 1 min intervals, using a microplate spectrophotometer reader (Infinite M1000, Tecan). The rate of the enzyme activity was determined from the slope of the linear part of the kinetic reaction curves. In all steps, the working solution concentrations were 3 times of the final concentrations of each component in the final volume of 75 μL in each well. The final screening concentration of the compounds was 100 μM. […]
# human AChE [2] = molecular target: T2, human AChE (Homo sapiens, UniProt P22303); assay: In vitro single-concentration screening, AChE activity (adapted Ellman assay); format: biochemical; settings: read-out: inhibition of AChE activity
# T2 construct: purchased Sigma C1682
# Method: as §1, §2, §3
# human recombinant ChAT = assay: In vitro single-concentration screening against choline acetyltransferase; format: biochemical; settings: single concentration 100 μM
# Method: as §1
# human plasma BChE [3] = molecular target: T1, human plasma BChE; assay: biochemical; settings: for Ki: inhibition constant (Ki) against human BChE
# Excerpt: as §2
# (§4) For BChE, the final BTC concentrations in the wells ranged from 5 mM to […], which were prepared as a 2-fold serial dilution. For AChE, the final ATC concentrations in the wells ranged from 0.5 mM to […], prepared as a 2-fold serial dilution series.
# (§5) In all enzyme inhibition kinetic assays, the concentrations of AChE and BChE were chosen so that the enzyme activities were representative of the activity of these enzymes in the human CSF, which is about 20 and 10 nmol/min/mL CSF for AChE and BChE, respectively.[49]
# (§6) For the enzyme inhibition kinetic analyses, the order of steps was as follows: (1) 25 μL/well of the compound or the vehicle control was added in quadruplicates, with respect to each compound concentration, in a 384-well plate. (2) Then, 25 μL of each substrate concentration was added to the wells in quadruples. (3) The reaction was then started by adding 25 μL of a master mix to all wells, containing the enzyme working solution and DTNB. The final concentration of the enzyme and DTNB as well as the buffer composition was the same as mentioned above for the screening assay. Then, the plate was immediately placed in the microplate spectrophotometer reader (Infinite M1000, Tecan) and the changes in the absorbance were continuously monitored at 2 min intervals for 15–20 min at 412 nm wavelength. The rate of the enzyme activity was extracted as the slope of the initial linear part of the kinetic reaction curves.
# The data were then transferred and processed using GraphPad Prism 9 analysis software.[15] The half-maximal inhibitory concentration (IC50) values were calculated by plotting the percentage enzyme activity versus the log concentrations of the compound. The inhibitory constant (Ki) values were determined from the enzyme inhibition kinetic analyses using the nonlinear regression function in the software. A statistical comparison of the ligand’s mode of activity was also done using GraphPad software between the competitive equation versus the mixed-competitive, noncompetitive, and uncompetitive equations.[61] A competitive mode of action means that the inhibitor reversibly binds to the substrate′s binding site. Thus, the inhibition of the enzyme is modifiable by a high concentration of the substrate via displacement. […] When the behavior of a ligand is not fully uniform, and the mixed-competitive fitting equation is statistically the best fitting option, the ligand is called a mixed-competitive one. This is determined through a general equation that includes the other three modes of actions. Through this equation, the software provides an additional parameter, called α, which determines the mechanism of action of the inhibitor. For instance, when α is equal to one, the inhibitor′s affinity for the free enzyme and the enzyme–substrate complex is equal, i.e., the inhibitor behaves mainly noncompetitively. […] When α is very large, the inhibitor behaves mainly as a competitive ligand. A very small α (but not <0) is indicative of an uncompetitive mode of action.[61]
# human AChE [4] = molecular target: T2, human AChE; assay: IC50 and enzyme inhibition kinetic analyses on AChE; format: biochemical
# Excerpt: as §2, §4, §5, §6
# The data were then transferred and processed using GraphPad Prism 9 analysis software.[15] The half-maximal inhibitory concentration (IC50) values were calculated by plotting the percentage enzyme activity versus the log concentrations of the compound. The inhibitory constant (Ki) values were determined from the enzyme inhibition kinetic analyses using the nonlinear regression function in the software. A statistical comparison of the ligand’s mode of activity was also done using GraphPad software between the competitive equation versus the mixed-competitive, noncompetitive, and uncompetitive equations.[61] A competitive mode of action means that the inhibitor reversibly binds to the substrate′s binding site. Thus, the inhibition of the enzyme is modifiable by a high concentration of the substrate via displacement. […] In the case of an uncompetitive mode of activity, the inhibitor has an affinity to the enzyme–substrate complex, but not the free enzyme. When the behavior of a ligand is not fully uniform, and the mixed-competitive fitting equation is statistically the best fitting option, the ligand is called a mixed-competitive one. This is determined through a general equation that includes the other three modes of actions. Through this equation, the software provides an additional parameter, called α, which determines the mechanism of action of the inhibitor. For instance, when α is equal to one, the inhibitor′s affinity for the free enzyme and the enzyme–substrate complex is equal, i.e., the inhibitor behaves mainly noncompetitively. […] When α is very large, the inhibitor behaves mainly as a competitive ligand. […]
# [5] = Plasma / in vivo drug concentrations in humans (literature pharmacokinetics); settings: using a molecular weight of 325.39
# BChE = tested on: BChE; design: method as in PMID 17196712, PMID 16868793, PMID 20205672, PMID 19199870; settings: at therapeutic concentrations; cited from earlier work
# [6] = molecular target: norepinephrine uptake carrier; settings: read-out: Ki, norepinephrine uptake carrier; radioligand binding; cited from earlier work
# [7] = tested on: muscarinic, histaminergic, α1-adrenergic, serotonergic, dopaminergic, and opioid receptors; settings: radioligand binding; cited from earlier work
# [8] = cited from earlier work
# human BChE = settings: cited from earlier work
# [9] = cited from earlier work; remark: listed apart in the source
# [10] = high substrate range, up to 5 mM
# [11] = micromolar substrate range (up to 0.5 mM)
# [12] = human, multiple doses of 30 mg twice daily
# T2 sequence (P22303 32-614): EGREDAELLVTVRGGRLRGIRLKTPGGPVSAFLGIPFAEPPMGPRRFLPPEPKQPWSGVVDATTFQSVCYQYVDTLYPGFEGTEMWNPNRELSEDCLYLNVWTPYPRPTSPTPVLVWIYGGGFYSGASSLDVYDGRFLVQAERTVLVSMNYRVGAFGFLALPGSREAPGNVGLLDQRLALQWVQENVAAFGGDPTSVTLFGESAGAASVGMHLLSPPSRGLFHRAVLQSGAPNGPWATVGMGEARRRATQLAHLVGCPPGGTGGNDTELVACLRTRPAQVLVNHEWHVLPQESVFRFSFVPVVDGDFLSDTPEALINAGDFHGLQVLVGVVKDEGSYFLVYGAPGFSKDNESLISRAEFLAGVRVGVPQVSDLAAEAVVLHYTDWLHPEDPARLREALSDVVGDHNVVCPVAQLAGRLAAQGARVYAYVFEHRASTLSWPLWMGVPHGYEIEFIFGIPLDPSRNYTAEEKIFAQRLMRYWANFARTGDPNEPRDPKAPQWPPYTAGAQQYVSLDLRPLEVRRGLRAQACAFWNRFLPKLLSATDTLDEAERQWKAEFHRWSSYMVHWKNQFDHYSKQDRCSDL
# T1 sequence (P06276 29-602): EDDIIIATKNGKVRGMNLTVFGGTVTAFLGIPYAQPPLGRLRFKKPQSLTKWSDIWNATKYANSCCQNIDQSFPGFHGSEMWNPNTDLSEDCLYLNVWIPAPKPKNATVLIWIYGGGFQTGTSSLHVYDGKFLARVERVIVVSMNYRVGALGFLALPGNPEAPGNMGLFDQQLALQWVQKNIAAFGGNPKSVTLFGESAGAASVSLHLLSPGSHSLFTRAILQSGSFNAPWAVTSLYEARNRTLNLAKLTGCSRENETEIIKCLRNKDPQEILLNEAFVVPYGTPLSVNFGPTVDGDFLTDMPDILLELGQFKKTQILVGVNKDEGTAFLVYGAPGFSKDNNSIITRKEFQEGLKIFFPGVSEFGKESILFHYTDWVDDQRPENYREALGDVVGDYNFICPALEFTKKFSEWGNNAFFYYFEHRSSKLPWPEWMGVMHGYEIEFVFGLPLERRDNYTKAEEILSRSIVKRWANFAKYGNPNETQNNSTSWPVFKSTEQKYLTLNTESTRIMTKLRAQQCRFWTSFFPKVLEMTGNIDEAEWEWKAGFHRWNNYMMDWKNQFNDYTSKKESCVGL
smiles,measurement,setting,value
CN(C)CCCC1(c2ccc(F)cc2)OCc2cc(C#N)ccc21 (stereo not drawn) [citalopram],inhibition at 100 µM,human plasma BChE [1],~55%
same,inhibition at 100 µM,human AChE [2],~60%
same,effect on the activity of human ChAT,human recombinant ChAT,neither duloxetine nor citalopram/escitalopram affected the activity
same,BChE potency ratio Ki Escit / Ki Cit,human plasma BChE [3]; 203/42,4.8
same,mode of inhibition of BChE,human plasma BChE [3]; [10],mixed-competitive
same,Ki,human plasma BChE [3]; [10],42000 nM
same,Ki,human AChE [4],58800 nM
same,mode of inhibition of AChE,human AChE [4]; enzyme inhibition kinetics,noncompetitive
same,"molar concentration (maximum, from ng/mL)",[5],at most 0.86 μM
COc1cc2c(cc1OC)C(=O)C(CC1CCN(Cc3ccccc3)CC1)C2 (stereo not drawn) [donepezil],inhibitory effect on BChE,BChE,completely devoid of any inhibitory effect
CNCC[C@H](Oc1cccc2ccccc12)c1cccs1 [duloxetine],inhibition of plasma BChE activity,human plasma BChE [1],fully inhibited
same,inhibition at 100 µM,human AChE [2],~35%
same,effect on the activity of human ChAT,human recombinant ChAT,neither duloxetine nor citalopram/escitalopram affected the activity
same,IC50,human plasma BChE [3],9700 nM
same,times as potent as physostigmine in inhibiting BChE,human plasma BChE [3]; Ki 210 nM vs […] nM,4 times
same,mode of inhibition of BChE,human plasma BChE [3]; [10],competitive
same,Ki,human plasma BChE [3]; [10],~351 nM and 350 nM
same,Ki,human plasma BChE [3]; [11],210 nM
same,mode of inhibition of BChE,human plasma BChE [3]; [11],competitive
same,mode of inhibition of AChE,human AChE [4]; enzyme inhibition kinetics,mixed-competitive
same,Ki,"human AChE [4]; inhibition constant (Ki) against human AChE, nonlinear regression, enzyme inhibition kinetics",65500 nM and ~56500 nM
same,Ki,[6],2.1 nM
same,"affinity for muscarinic, histaminergic, α1-adrenergic, serotonergic, dopaminergic, and opioid receptors",[7],lacks the pharmacologically relevant affinity
same,maximum steady-state plasma concentration,[8]; [12],142 nM
same,minimum steady-state plasma concentration,[8]; [12],84 nM
same,normal in vivo concentration range in human patients,[8]; normal dosages,100 to 400 nM
same,Cmax,"[8]; read-out: plasma Cmax, human, single dose of 30–90 mg",70 to 180 nM
same,inhibition of human BChE,human BChE; 10 μM,over 70%
same,IC50,"human BChE; read-out: IC50 against human BChE, substrate and its concentration not reported",1200 nM
same,effect on cognition in the elderly,[9]; 8-week double-blind placebo-controlled trial,improved cognition
same,cognitive effect in patients with major depressive disorders,[9]; 12-week study,significant cognitive improvements across several domains
same,risk of developing dementia compared to citalopram-treated patients,"[9]; pharmacoepidemiologic study, patients with depression",significantly lower risk of developing dementia
CN(C)CCC[C@@]1(c2ccc(F)cc2)OCc2cc(C#N)ccc21 [escitalopram],inhibition at 100 µM,human plasma BChE [1],~10%
same,inhibition at 100 µM,human AChE [2],~60%
same,effect on the activity of human ChAT,human recombinant ChAT,neither duloxetine nor citalopram/escitalopram affected the activity
same,mode of inhibition of BChE,human plasma BChE [3]; [10],mixed-competitive
same,Ki,human plasma BChE [3]; [10],203000 nM
same,Ki,human AChE [4],32800 nM
same,AChE potency ratio Ki Cit / Ki Escit,human AChE [4]; 59/33,1.8
same,mode of inhibition of AChE,human AChE [4]; enzyme inhibition kinetics,mixed-competitive
same,"molar concentration (maximum, from ng/mL)",[5],at most 0.86 μM
CCN(CC)C(C)CN1c2ccccc2Sc2ccccc21 (stereo not drawn) [ethopropazine],mode of inhibition of BChE,human plasma BChE [3]; [10],mixed-competitive
same,Ki,human plasma BChE [3]; [10],150 nM
same,Ki,human plasma BChE [3]; low substrate concentrations (up to 0.5 mM),154 nM
same,Ki,human plasma BChE [3]; [11],~155 nM
same,mode of inhibition of BChE,human plasma BChE [3]; [11],Mixed-competitive inhibitor
COc1ccc2c3c1O[C@H]1C[C@@H](O)C=C[C@@]31CCN(C)C2 [galantamine],inhibitory effect on BChE,BChE,completely devoid of any inhibitory effect
CNC(=O)Oc1ccc2c(c1)[C@]1(C)CCN(C)[C@@H]1N2C [physostigmine],mode of inhibition of BChE,human plasma BChE [3]; [10],Competitive inhibitor
